Laboratory results: ChEMBL document CHEMBL3045510, “Phyllostoxin and phyllostin, bioactive metabolites produced by Phyllosticta cirsii, a potential mycoherbicide for Cirsium arvense biocontrol” (J Agric Food Chem, 2008)
Active and inactive are the calls of the source. The rule behind the calls is not given here.

Key:
[1] = tested on: Artemia salina; experiment: Toxicity against Artemia salina (brine shrimp) up to 1 mM; type: organism-based; details: in vivo
[2] = tested on: Cirsium arvense; experiment: Herbicidal activity against Cirsium arvense (Canada thistle) assessed induction of necrosis on leaves as 1 mM; type: functional, organism-based
[3] = tested on: Lactobacillus sp.; experiment: Antimicrobial activity against Lactobacillus sp. up to 100 ug/disk; type: functional, organism-based
[4] = tested on: Escherichia coli; experiment: Antimicrobial activity against Escherichia coli up to 100 ug/disk; type: functional, organism-based
[5] = tested on: Geotrichum candidum; experiment: Antimicrobial activity against Galactomyces geotrichum up to 100 ug/disk; type: functional, organism-based

Structure (SMILES) | Activity [1] | Activity [2] | Activity [3] | Activity [4] | Activity [5]
COC(=O)C1=C[C@@H](O)[C@@H]2OC(=O)[C@@H](C)O[C@H]2C1 [PHYLLOSTIN] | Non-toxic | inactive | inactive | inactive | inactive
CCC(=O)C1(C)C(=O)c2c1ccc(C)c2OC(C)=O (stereo not given) [PHYLLOSTOXIN] | Non-toxic | Active | inactive | inactive | inactive
